In patent US8877261B2, “Anti-redness active agent and cosmetic compositions comprising same” (Laboratoires Expanscience, priority 2011, dated 2014):
Marks after values point to notes of the source that are not given here.

Assays:
interleukin-8 (IL8) = assay: Release of IL8 by keratinocytes induced by PMA (ELISA); assay type: cell-based, human; settings: dexamethasone 10^−7 M, ARG 0.2% + LUP 0.02%
Procedure: Human keratinocytes (NCTC 2544 cell line) were preincubated for 24 hours with the arabinogalactan (ARG)/lupin peptides (LUP) active agents at concentrations of 0.2%/0.02% or with the reference molecule, dexamethasone.
Inflammation was then induced by treatment with PMA for 24 hours, always in the presence of the active agents or the reference molecule.
At the end of incubation, the quantities of interleukin-8 (IL8) present in the culture supernatants were measured by ELISA.
The significance of the results was verified by a single-factor analysis of variance followed by a Tukey's test.
The percentage of inhibition is calculated according to the following formula: [(stimulated PMA)−(active treatment)/(stimulated PMA)]*100 Results (Table 10)

MMP9 = assay: Gene expression of MMP9 in keratinocytes induced by PMA (real-time PCR); assay type: cell-based, human; settings: NHEK, total 40 hours
Procedure: The effect of the active agents was sought in a basal condition (to study MMP2) or in a preventive manner on a cell layer having been subjected to inflammatory stress induced by PMA (for MMP9).
Normal human epidermal keratinocytes (NHEK) were preincubated for 24 hours in the presence of the arabinogalactan (ARG)/lupin peptides (LUP) active agents at concentrations of 0.2%/0.02%. PMA was then added for a total treatment period of 40 hours.
At the end of the treatment, the culture supernatants were removed and total RNA was extracted, analyzed and assayed. The neo-synthesized cDNA relating to the genes of interest (MMP2, MMP9) or to the reference genes were amplified selectively by iQ5 real-time PCR (Biorad) using SybrGreen technology.
(§1) By calculating ΔCt (Ctgene of interest−Ctreference gene) and ΔΔCt (ΔCtcontrol−ΔCttreated) the relative quantity of the gene of interest was measured: RQ=(1+E)^ΔΔCt; when E (effectiveness) is equal to 1, then RQ=2^ΔΔCt.
The significance of the results was verified for the ΔCt values by a single-factor analysis of variance followed by a Dunnett's test (for MMP2) or a Tukey's test (for MMP9).
The percentage of inhibition is thus calculated for MMP9: [(RQ(PMA stimulated)−RQ(active treatment))/RQ(PMA stimulated)]*100 Results

cathelicidin (LL37) = assay: Gene expression of cathelicidin (LL37) induced by calcitriol in keratinocytes (real-time PCR); assay type: cell-based, human; settings: for Mean ΔCt (CtLL37 − CtGAPDH) / LL37 expression (relative quantity) / ΔΔCt (LL37) / Percentage of inhibition (LL37 expression): NHEK, 24 hours, ARG 0.2%, LUP 0.02%; for Mean ΔCt (CtLL37 − CtGAPDH) / LL37 expression (relative quantity) / ΔΔCt (LL37): with calcitriol; for Mean ΔCt (CtLL37 − CtGAPDH): alone or in combination; for LL37 expression (relative quantity): control cells = 1.00; for ΔΔCt (LL37): ΔCtcontrol−ΔCttreated; for Percentage of inhibition (LL37 expression): versus calcitriol stimulated control
Procedure: (§2) Normal human epidermal keratinocytes (NHEK) were cultured in differentiation culture medium supplemented with Ca^++. […] At the end of the treatment, the culture supernatants were removed and total RNA was extracted, analyzed and assayed. The neo-synthesized cDNA relating to the genes of interest (LL37 and KLK5) or to the reference genes were amplified selectively by iQ5 real-time PCR (Biorad) using SybrGreen technology. […] By calculating ΔCt (Ctgene of interest−Ctreference gene) and ΔΔCt (ΔCtcontrol−ΔCttreated) the relative quantity of the gene of interest was measured: […] The significance of the results was verified for the ΔCt values by a single-factor analysis of variance followed by a Tukey's test. The percentage of inhibition of the expression of LL37 and KLK5 is thus calculated: [(RQ(stim calcitriol)−RQ(active treatment))/RQ(stim calcitriol)]*100 Results

kallikrein-5 (KLK5) = assay: Gene expression of kallikrein-5 (KLK5) induced by calcitriol in keratinocytes (real-time PCR); assay type: cell-based, human
Procedure: as §2

[1] = tested on: Normal human dermal microvascular endothelial cells; assay: Proliferation of endothelial cells in the presence of VEGF (PNPP viability); assay type: cell-based; settings: for T24 h - %/control (without VEGF) T0 / Percentage of inhibition 24 h (proliferation induced by VEGF): 24 hours; for T24 h - %/control (without VEGF) T0 / T48 h - %/control (without VEGF) T0: in the presence of VEGF, PNPP signal, mean±standard deviation; for T24 h - %/control (without VEGF) T0 / T48 h - %/control (without VEGF) T0 / Percentage of inhibition 24 h (proliferation induced by VEGF) / Percentage of inhibition 48 h (proliferation induced by VEGF): ARG 0.2%, LUP 0.02%; for T48 h - %/control (without VEGF) T0 / Percentage of inhibition 48 h (proliferation induced by VEGF): 48 hours; for stimulation of the growth of endothelial cells in relation to control cells: VEGF, p<0.01; for Percentage of inhibition 24 h (proliferation induced by VEGF) / Percentage of inhibition 48 h (proliferation induced by VEGF): alone or in combination
Procedure: Normal human dermal microvascular endothelial cells were incubated for 24 or 48 hours in the absence (control) or in the presence of the arabinogalactan (ARG)/lupin peptides (LUP) active agents at concentrations of 0.2%/0.02% alone or in combination and in the presence of vascular endothelial growth factor (VEGF), the reference activator. At the end of incubation, the viability of the cells was evaluated by a spectrophotometric method: P-nitrophenyl phosphate (PNPP) is transformed into p-nitrophenol by phosphatases of viable cells and the absorbance at 405 nm of p-nitrophenol is directly proportional to the number of viable cells.
The results are expressed as the percentage of the “PNPP” signal of the control without VEGF at TO (mean±standard deviation).
The statistical significance of the differences between the “VEGF stimulated cells” and “VEGF+active agents” conditions was evaluated by a single-factor analysis of variance followed by a Holm-Sidak test.
The percentage of inhibition of proliferation is calculated according to the following equation: [(active treatment)−(VEGF stimulated)/(control without VEGF)−(VEGF stim)]*100 Results

VEGF = assay: Gene expression of VEGF by keratinocytes (real-time PCR); assay type: cell-based, human; settings: NHEK; for Percentage of inhibition (VEGF expression): versus control cells
Procedure: Normal human epidermal keratinocytes (NHEK) were incubated in the presence of the complex of arabinogalactan (ARG)/lupin peptides (LUP) active agents at concentrations of 0.2%/0.02% alone or in combination.
At the end of the treatment, the culture supernatants were removed and total RNA was extracted, analyzed and assayed. The neo-synthesized cDNA relating to the genes of interest (VEGF, FGF2, HIF1α, THBS1) or to the reference genes were amplified selectively by iQ5 real-time PCR (Biorad) using SybrGreen technology.
as §1
The significance of the results was verified for the ΔCt values by a single-factor analysis of variance followed by a Dunnett's test.
The percentage of inhibition is calculated for VEGF, FGF2 and HIF1α: [(RQ(control)−RQ(active treatment))/RQ (control)]*100

[2] = NCTC 2544 keratinocytes, 24 hours preincubation then PMA 24 hours, culture supernatants
[3] = calcitriol versus control cells, p<0.001

C[C@@H]1C[C@H]2[C@@H]3CCC4=CC(=O)C=C[C@]4(C)[C@@]3(F)[C@@H](O)C[C@]2(C)[C@@]1(O)C(=O)CO [Dexamethasone, dexamethasone]
inhibition at 0.1 µM (interleukin-8 (IL8); Homo sapiens, NCTC-2544, versus PMA stimulated control, NCTC 2544, read-out: percentage of inhibition of IL8 release induced by PMA): 81%
IL8 (interleukin-8 (IL8); [2]): 5.967 ± 0.203 ng/mL
percentage of inhibition of IL8 release induced by PMA (interleukin-8 (IL8); versus PMA stimulated control, NCTC 2544): 80.5%

CCCCCCCCCCCCCC(=O)O[C@@H]1[C@@H](C)[C@@]2(O)[C@@H](C=C(CO)C[C@]3(O)C(=O)C(C)=C[C@@H]23)[C@@H]2C(C)(C)[C@]12OC(C)=O [PMA]
ΔΔCt (MMP9) (MMP9; PMA stimulated): 6.55
MMP9 expression (relative quantity) (MMP9; PMA stimulated, control cells = 1): 93.70 $$$
Mean ΔCt (CtMMP9 − CtGAPDH) (MMP9; preincubated 24 hours, then PMA, ARG 0.2% + LUP 0.02%): 2.32
IL8 (ng/ml) (interleukin-8 (IL8); [2]): 30.60 ± 1.888 $$$ ng/ml

C=C1/C(=C\C=C2/CCC[C@]3(C)[C@@H]([C@H](C)CCCC(C)(C)O)CC[C@@H]23)C[C@@H](O)C[C@@H]1O [calcitriol]
Mean ΔCt (CtLL37 − CtGAPDH) (cathelicidin (LL37)): 11.02
LL37 expression (relative quantity) (cathelicidin (LL37)): 9.12 $$$
ΔΔCt (LL37) (cathelicidin (LL37)): 3.19
stimulation of the gene expression of LL37 by keratinocytes (cathelicidin (LL37); [3]): 812%
Mean ΔCt (CtKLK5 − CtGAPDH) (kallikrein-5 (KLK5); NHEK, 24 hours, with calcitriol, ARG 0.2% + LUP 0.02%): 2.46
KLK5 expression (relative quantity) (kallikrein-5 (KLK5); NHEK, 24 hours, with calcitriol, control cells = 1.00): 2.49 $$$
ΔΔCt (KLK5) (kallikrein-5 (KLK5); NHEK, 24 hours, with calcitriol, ΔCtcontrol−ΔCttreated): 1.32
stimulation of the gene expression of kallikrein-5 by keratinocytes (kallikrein-5 (KLK5); [3]): 149%

VEGF
T24 h - %/control (without VEGF) T0 [1]: 213.2 ± 10.8%
T48 h - %/control (without VEGF) T0 [1]: 262.6 ± 5^ %
stimulation of the growth of endothelial cells in relation to control cells ([1]; after 24 hours of incubation): 78.9%
stimulation of the growth of endothelial cells in relation to control cells ([1]; after 48 hours of incubation): 159%

arabinogalactan [ARG]
Mean ΔCt (CtVEGF − CtGAPDH) (VEGF; ARG 0.2%, LUP 0.02%, alone or in combination): 9.03
VEGF expression (relative quantity) (VEGF; control cells = 1): 0.707 **
ΔΔCt (VEGF) (VEGF; ΔCtcontrol−ΔCttreated): −0.5
Percentage of inhibition (VEGF expression) (VEGF; ARG 0.2%, LUP 0.02%): 29.3%
Percentage of inhibition (VEGF expression) (VEGF; ARG 0.2%, LUP 0.02%, listed as Arabinogalactan): 29%
T24 h - %/control (without VEGF) T0 [1]: 204.7 ± 7.1%
Percentage of inhibition 24 h (proliferation induced by VEGF) [1]: 17.03%
Percentage of inhibition 24 h (proliferation induced by VEGF) ([1]; listed as arabinogalactan): 17%
T48 h - %/control (without VEGF) T0 [1]: 252.9 ± 6^ %
Percentage of inhibition 48 h (proliferation induced by VEGF) [1]: 9.71%
Percentage of inhibition 48 h (proliferation induced by VEGF) ([1]; listed as arabinogalactan): ~10%
Mean ΔCt (CtLL37 − CtGAPDH) (cathelicidin (LL37)): 11.31
LL37 expression (relative quantity) (cathelicidin (LL37)): 7.46 *
ΔΔCt (LL37) (cathelicidin (LL37)): 2.9
Percentage of inhibition (LL37 expression) (cathelicidin (LL37)): 18.2%
Percentage of inhibition (LL37 expression) (cathelicidin (LL37); listed as Arabinogalactan): 18%
